The target in experiment [1] is T1, Glycogen synthase kinase-3 beta (Mus musculus, UniProt Q9WV60). The experiment is described as follows: Inhibition of GSK-3 beta in mouse D3 cells assessed as induction of neuron specific marker beta3-tubulin by immunofluorescence method. Format: cell-based.
Experiment [2] has as its target T1, Glycogen synthase kinase-3 beta. The experiment is described as follows: Inhibition of GSK-3 beta in mouse D3 cells. The class given is cell-based.
Experiment [3] has the same target. The experiment in a line: Inhibition of GSK-3 beta in mouse D3 cells assessed as induction of neuron specific marker microtubule-associated protein 2 by immunofluorescence method. Format: cell-based.
Experiment [4] deals with Myc proto-oncogene protein/Transcription factor AP-1 (Gallus gallus, UniProt P01109+P18870). The experiment is described as follows: Inhibition of Myc-Jun protein - protein interaction in chicken embryo fibroblasts assessed as inhibition of cell focus formation11.
Chain of Myc proto-oncogene protein/Transcription factor AP-1 (P18870 whole entry): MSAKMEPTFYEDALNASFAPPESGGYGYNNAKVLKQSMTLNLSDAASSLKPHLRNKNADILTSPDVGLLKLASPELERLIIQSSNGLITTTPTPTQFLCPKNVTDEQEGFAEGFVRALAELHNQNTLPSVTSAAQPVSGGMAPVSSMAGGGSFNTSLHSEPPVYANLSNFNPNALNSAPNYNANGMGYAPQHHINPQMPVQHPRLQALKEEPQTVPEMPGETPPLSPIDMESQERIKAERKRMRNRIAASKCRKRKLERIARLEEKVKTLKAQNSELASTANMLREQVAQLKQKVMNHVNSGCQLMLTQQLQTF
Chain of Myc proto-oncogene protein/Transcription factor AP-1 (P01109 whole entry): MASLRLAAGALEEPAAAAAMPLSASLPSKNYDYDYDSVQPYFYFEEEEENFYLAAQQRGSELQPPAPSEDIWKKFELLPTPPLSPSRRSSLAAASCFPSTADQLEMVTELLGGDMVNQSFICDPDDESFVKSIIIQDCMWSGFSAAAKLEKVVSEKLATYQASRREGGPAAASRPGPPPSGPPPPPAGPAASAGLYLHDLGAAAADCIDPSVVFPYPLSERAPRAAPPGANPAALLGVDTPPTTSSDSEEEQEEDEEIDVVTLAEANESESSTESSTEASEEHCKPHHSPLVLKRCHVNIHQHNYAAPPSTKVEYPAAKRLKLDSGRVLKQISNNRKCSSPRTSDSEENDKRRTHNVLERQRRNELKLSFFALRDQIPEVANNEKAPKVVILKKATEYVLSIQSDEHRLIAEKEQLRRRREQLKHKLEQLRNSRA
Experiment [5] has as its target T1, Glycogen synthase kinase-3 beta. The experiment is described as follows: Binding affinity to GSK-3 beta in mouse D3 cells. The class given is cell-based.
Experiment [6] has the same target. The experiment is described as follows: Inhibition of GSK-3 beta in mouse D3 cells assessed as induction of neuron specific marker neurofilament-M by immunofluorescence method. The class given is cell-based.
Experiment [7] in a line: Induction of cardiomyogenesis in mouse D3 cells assessed as induction of cadiomyocyte specific marker myosin heavy chain by immunofluorescence method. The class given is functional, cell-based.
Experiment [8] can be described thus: Induction of cardiomyogenesis in mouse D3 cells assessed as induction of cadiomyocyte specific marker MEF2 by immunofluorescence method. The class given is functional, cell-based.
In experiment [9] the target is Histone deacetylase. The experiment is described as follows: Inhibition of HDAC in human A549 cells assessed as induction of histone acetylation by fluorescence microscopy. Format: cell-based.
Experiment [10] concerns C3H 10T1/2. The experiment is described as follows: Induction of osteogenesis in mouse C3H10T1/2 cells assessed as induction of osteoblast specific marker alkaline phosphatase by immunofluorescence method. Format: functional, cell-based.
Experiment [11] in a line: Binding affinity to yeast Ure2p. On the set-up: species or system Saccharomyces cerevisiae.

Structures are written as SMILES.

T1 sequence (Q9WV60 whole entry): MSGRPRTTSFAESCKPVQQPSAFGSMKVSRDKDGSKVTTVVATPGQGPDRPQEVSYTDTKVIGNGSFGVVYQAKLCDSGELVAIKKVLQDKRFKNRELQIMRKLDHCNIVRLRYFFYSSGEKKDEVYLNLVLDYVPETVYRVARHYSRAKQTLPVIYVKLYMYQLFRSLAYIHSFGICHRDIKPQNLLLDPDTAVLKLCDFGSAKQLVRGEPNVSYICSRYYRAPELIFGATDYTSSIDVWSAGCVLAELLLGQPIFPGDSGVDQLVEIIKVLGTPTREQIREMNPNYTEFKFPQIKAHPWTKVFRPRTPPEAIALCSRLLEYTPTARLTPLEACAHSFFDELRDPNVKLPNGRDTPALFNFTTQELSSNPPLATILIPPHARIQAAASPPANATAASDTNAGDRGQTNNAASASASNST

One may read the EC50 as the concentration that produces a half-maximal response. The Kd is the free concentration of one partner at which half of the binding sites on the other are occupied at equilibrium, for simple one-to-one binding. Lower therefore signals tighter binding. The IC50 is the midpoint of a concentration-inhibition curve. As to `Nc1cccc(-c2cc3c(Oc4cccc(O)c4)ncnc3[nH]2)c1`, the EC50 in experiment [1], in experiment [3] and in experiment [6] was 1000 nM in each case. The Kd in [2] is 126 nM. The IC50 in [4] came to 15000 nM; in [5], 30 nM.
For `COc1ccc(Nc2nccc(NCCO)n2)cc1` [CARDIOGENOL C], the EC50 in experiment [7] and in experiment [8] was 100 nM in each case.
In the case of `Nc1ccccc1NC(=O)CCCCCC(=O)Nc1cccc([C@@H]2O[C@H](CN3CCN(Cc4ccccc4)CC3)C[C@H](c3ccc(CO)cc3)O2)c1` [HISTACIN], the EC50 in [9] stood at 34000 nM.
As for `c1ccc2c(Oc3nc(Nc4ccc(N5CCOCC5)cc4)c4ncn(C5CCCCC5)c4n3)cccc2c1` [PURMORPHAMINE], the EC50 in experiment [10] worked out at 1000 nM.
In the case of `NCc1ccc([C@H]2O[C@@H](CSc3nc(-c4ccccc4)c(-c4ccccc4)o3)[C@H](c3ccccc3)[C@@H](c3ccc(CO)cc3)O2)cc1` [URETUPAMINE A], in experiment [11], binding was put at a Kd of 18100 nM. This counts as double-digit micromolar.
With `NCc1ccc([C@H]2O[C@@H](CSc3nc(-c4ccccc4)c(-c4ccccc4)o3)C[C@@H](c3ccc(CO)cc3)O2)cc1` [URETUPAMINE B], the affinity in [11], expressed as Kd, was 7500 nM. This Kd is about 2.4-fold lower than that of the compound before.

For the origin of these results see ChEMBL document CHEMBL1240300, “Diversity-oriented synthesis: exploring the intersections between chemistry and biology” (Nat Chem Biol, 2005).
